Measured values from ChEMBL document CHEMBL6103630, “Discovery of Novel 2,4,5-Trisubstituted Pyrimidine Derivatives as Potent and Selective FGFR Inhibitors against Gatekeeper Mutants for the Treatment of NSCLC” (J Med Chem, 2025).
Active and inactive are the calls of the source. The rule behind the calls is not given here.

Columns and labels:
[1] = AUC(0 to infinity) in male Sprague-Dawley rat at 2 mg/kg, iv by UHPLC-MS/MS analysis; assay type: ADME, organism-based; conditions: in vivo
[2] = target: Platelet-derived growth factor receptor alpha (Homo sapiens) (UniProt P16234); experiment: Inhibition of PDGFRalpha (unknown origin)
[3] = system: NCI-H1581; experiment: Inhibition of DNA replication in human NCI-H1581 cells incubated for 1 hrs by EdU staining based analysis; assay type: functional, cell-based; conditions: dose 100.0 µM
[4] = Oral bioavailability in male Sprague-Dawley rat at 2 mg/kg, iv by UHPLC-MS/MS analysis; assay type: ADME, organism-based; conditions: in vivo
[5] = system: L6; experiment: Antitumor activity against rat L6 cells harboring FGFR1 V561M mutant xenografted in BALB/c nude mouse assessed as suppression of tumor cell proliferation at 30 to 60 mg/kg by Ki-67 staining based analysis; assay type: functional, organism-based; conditions: dose 30-60 mg/kg
[6] = target: T1, Fibroblast growth factor receptor 2 (Homo sapiens, UniProt P21802); experiment: Inhibition of wild type FGFR2 (unknown origin) by caliper mobility shift assay
Target sequence in this assay (P21802 whole entry): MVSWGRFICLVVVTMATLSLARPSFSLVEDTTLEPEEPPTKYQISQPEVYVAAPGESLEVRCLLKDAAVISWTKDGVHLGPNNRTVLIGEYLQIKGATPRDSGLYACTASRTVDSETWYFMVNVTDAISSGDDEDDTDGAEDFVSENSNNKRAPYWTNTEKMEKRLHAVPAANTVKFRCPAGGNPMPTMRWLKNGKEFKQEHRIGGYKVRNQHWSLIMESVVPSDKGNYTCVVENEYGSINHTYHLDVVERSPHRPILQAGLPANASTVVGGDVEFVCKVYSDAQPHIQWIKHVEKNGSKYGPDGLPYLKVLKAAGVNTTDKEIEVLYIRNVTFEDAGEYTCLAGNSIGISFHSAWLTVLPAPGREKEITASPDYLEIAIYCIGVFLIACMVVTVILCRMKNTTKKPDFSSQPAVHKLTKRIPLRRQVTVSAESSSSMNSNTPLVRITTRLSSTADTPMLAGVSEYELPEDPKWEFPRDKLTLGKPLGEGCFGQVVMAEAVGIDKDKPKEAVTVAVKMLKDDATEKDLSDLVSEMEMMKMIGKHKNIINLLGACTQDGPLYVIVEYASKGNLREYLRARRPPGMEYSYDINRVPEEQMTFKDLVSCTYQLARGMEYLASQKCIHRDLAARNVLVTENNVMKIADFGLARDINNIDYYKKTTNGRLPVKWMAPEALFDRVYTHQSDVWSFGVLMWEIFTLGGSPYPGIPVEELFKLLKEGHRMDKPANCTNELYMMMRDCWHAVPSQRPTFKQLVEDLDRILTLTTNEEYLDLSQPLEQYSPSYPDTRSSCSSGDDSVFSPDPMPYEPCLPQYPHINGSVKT

[7] = system: Mus musculus; experiment: In vivo inhibition of ERK phosphorylation in BALB/c nude mouse xenografted with rat L6 cells harboring FGFR1 V561M mutant assessed as suppression of ERK level in tumor at 60 mg/kg by Western blotting analysis; assay type: functional, organism-based
[8] = system: NCI-H1581; experiment: Inhibition of cell migration in human NCI-H1581 cells at 10 to 40 nM incubated for 48 hrs by crystal violet staining based transwell assay; assay type: functional; conditions: dose 10-40 nM
[9] = AUC(0 to t) in male Sprague-Dawley rat at 10 mg/kg, po by UHPLC-MS/MS analysis; assay type: ADME, organism-based; conditions: in vivo
[10] = system: NCI-H1581; experiment: cells; conditions: Homo sapiens, NCI-H1581, 48 h
Description: Antiproliferative activity against human NCI-H1581 cells assessed as inhibition of cell proliferation incubated for 48 hrs by MTT assay

[11] = Hepatotoxicity in ICR mouse assessed as change in ALT level at 80 mg/kg, po; assay type: toxicity, organism-based; conditions: in vivo
[12] = AUC(0 to t) in male Sprague-Dawley rat at 2 mg/kg, iv by UHPLC-MS/MS analysis; assay type: ADME, organism-based; conditions: in vivo
[13] = system: NCI-H1581; experiment: Inhibition of cell migration in human NCI-H1581 cells incubated upto 72 hrs by wound healing assay; assay type: functional, cell-based; conditions: dose 10-40 µM
[14] = system: A549; experiment: Inhibition of cell migration in human A549 cells at 10 to 40 nM incubated for 48 hrs by crystal violet staining based transwell assay; assay type: functional; conditions: dose 10-40 nM
[15] = target: Fibroblast growth factor receptor 3 (Homo sapiens, UniProt P22607); experiment: Inhibition of wild type FGFR3 (unknown origin) by caliper mobility shift assay
[16] = system: A549; experiment: cells; conditions: Homo sapiens, A549, 48 h
Description: Antiproliferative activity against human A549 cells assessed as inhibition of cell proliferation incubated for 48 hrs by MTT assay

[17] = Toxicity in BALB/c nude mouse xenografted with rat L6 cells harboring FGFR V561M mutant assessed as change in kidney weight at 30 to 60 mg/kg and measured daily for 14 days; assay type: organism-based; conditions: in vivo, 336 h, dose 30-60 mg/kg, time 14 day
[18] = system: Mus musculus; experiment: In vivo inhibition of AKT phosphorylation in BALB/c nude mouse xenografted with human NCI-H1581 cells assessed as reduction in AKT phosphorylation level in tumor by Western blotting analysis; assay type: functional, organism-based
[19] = Half life in male Sprague-Dawley rat at 2 mg/kg, iv by UHPLC-MS/MS analysis; assay type: ADME, organism-based; conditions: in vivo
[20] = target: Epidermal growth factor receptor (Homo sapiens) (UniProt P00533); experiment: Inhibition of EGFR (unknown origin)
[21] = Antitumor activity against rat L6 cells harboring FGFR V561M mutant xenografted in BALB/c nude mouse assessed as tumor growth inhibition at 30 mg/kg relative to control; assay type: functional; conditions: read-out: TGI
[22] = target: Fibroblast growth factor receptor 2 (Homo sapiens, UniProt P21802, V564F)
[23] = system: L6; experiment: Antitumor activity against rat L6 cells harboring FGFR1 V561M mutant xenografted in BALB/c nude mouse assessed as induction of apoptosis in tumor at 30 to 60 mg/kg by H and E staining based analysis; assay type: functional, organism-based; conditions: dose 30-60 mg/kg
[24] = system: NCI-H1581; experiment: Inhibition of cell migration in human NCI-H1581 cells at 40 nM incubated upto 72 hrs by wound healing assay (reference value: 80%); assay type: functional
[25] = Toxicity in BALB/c nude mouse xenografted with human NCI-H1581 cells assessed as change in AST level at 60 mg/kg; assay type: organism-based; conditions: in vivo
[26] = Toxicity in BALB/c nude mouse xenografted with human NCI-H1581 cells assessed as change in lung weight and measured after 14 days; assay type: tissue-based; conditions: 336 h, time 14 day
[27] = system: Mus musculus; experiment: In vivo inhibition of AKT phosphorylation in BALB/c nude mouse xenografted with rat L6 cells harboring FGFR1 V561M mutant assessed as suppression of AKT level in tumor at 60 mg/kg by Western blotting analysis; assay type: functional, organism-based
[28] = Toxicity in BALB/c nude mouse xenografted with human NCI-H1581 cells assessed as change in spleen weight and measured after 14 days; conditions: 336 h, time 14 day
[29] = system: Mus musculus; experiment: In vivo inhibition of FGFR1 signaling pathway in BALB/c nude mouse xenografted with rat L6 cells harboring FGFR1 V561M mutant assessed as suppression of FGFR1 phosphorylation in tumor at 60 mg/kg by Western blotting analysis; assay type: functional, organism-based
[30] = Toxicity in BALB/c nude mouse xenografted with rat L6 cells harboring FGFR V561M mutant assessed as change in spleen weight at 30 to 60 mg/kg and measured daily for 14 days; assay type: organism-based; conditions: in vivo, 336 h, dose 30-60 mg/kg, time 14 day
[31] = target: Fibroblast growth factor receptor 3 (Homo sapiens, UniProt P22607, V555M)
[32] = Toxicity in ICR mouse assessed as change in kidney weight at 80 mg/kg, po measured after 7 days; assay type: organism-based; conditions: in vivo, 168 h, time 7 day
[33] = system: Mus musculus; experiment: In vivo inhibition of FGFR1 signaling pathway in BALB/c nude mouse xenografted with human NCI-H1581 cells assessed as reduction in FGFR1 phosphorylation level in tumor by Western blotting analysis; assay type: functional, organism-based
[34] = Toxicity in ICR mouse assessed as change in body weight at 80 mg/kg, po measured after 7 days; assay type: organism-based; conditions: in vivo, 168 h, time 7 day
[35] = Toxicity in ICR mouse assessed as change in spleen weight at 80 mg/kg, po measured after 7 days; assay type: organism-based; conditions: in vivo, 168 h, time 7 day
[36] = Half life in male Sprague-Dawley rat at 10 mg/kg, po by UHPLC-MS/MS analysis; assay type: ADME, organism-based; conditions: in vivo
[37] = Toxicity in ICR mouse assessed as change in lung weight at 80 mg/kg, po measured after 7 days; assay type: organism-based; conditions: in vivo, 168 h, time 7 day
[38] = target: T1, Fibroblast growth factor receptor 2; experiment: Covalent irreversible binding affinity to FGFR2 (unknown origin) by MALDI-TOF MS analysis
Target sequence in this assay (P21802 22-821 limits assumed): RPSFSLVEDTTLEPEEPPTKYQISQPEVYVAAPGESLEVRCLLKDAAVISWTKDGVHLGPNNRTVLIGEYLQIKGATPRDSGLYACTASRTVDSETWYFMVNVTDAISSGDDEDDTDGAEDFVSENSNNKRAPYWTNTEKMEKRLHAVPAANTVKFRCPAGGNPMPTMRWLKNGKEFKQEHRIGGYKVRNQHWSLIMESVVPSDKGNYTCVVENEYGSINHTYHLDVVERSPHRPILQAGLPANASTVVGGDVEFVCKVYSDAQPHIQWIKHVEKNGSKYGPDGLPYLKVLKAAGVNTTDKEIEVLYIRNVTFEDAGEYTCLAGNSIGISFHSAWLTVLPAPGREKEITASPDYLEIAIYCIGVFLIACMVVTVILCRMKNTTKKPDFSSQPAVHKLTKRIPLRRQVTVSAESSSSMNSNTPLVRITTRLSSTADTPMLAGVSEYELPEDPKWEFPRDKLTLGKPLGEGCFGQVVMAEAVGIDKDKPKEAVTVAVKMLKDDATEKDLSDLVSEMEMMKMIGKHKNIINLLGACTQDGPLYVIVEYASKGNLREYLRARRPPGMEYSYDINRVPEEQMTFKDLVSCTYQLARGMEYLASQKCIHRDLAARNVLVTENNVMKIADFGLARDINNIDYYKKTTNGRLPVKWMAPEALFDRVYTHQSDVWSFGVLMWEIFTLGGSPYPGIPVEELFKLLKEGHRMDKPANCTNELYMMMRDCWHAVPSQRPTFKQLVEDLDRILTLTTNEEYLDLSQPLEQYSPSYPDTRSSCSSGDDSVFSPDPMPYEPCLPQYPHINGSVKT

[39] = Tmax in male Sprague-Dawley rat at 2 mg/kg, iv by UHPLC-MS/MS analysis; assay type: ADME, organism-based; conditions: in vivo
[40] = Toxicity in ICR mouse assessed as change in liver weight at 80 mg/kg, po measured after 7 days; assay type: organism-based; conditions: in vivo, 168 h, time 7 day
[41] = system: NCI-H1581; experiment: Antitumor activity against human NCI-H1581 cells xenografted in BALB/c nude mouse assessed as inhibition of tumor cell proliferation by Ki-67 staining based analysis; assay type: functional

Chain of Fibroblast growth factor receptor 2 (Homo sapiens, UniProt P21802, V564F) (P21802 22-821 V564F limits assumed): as the sequence (P21802 22-821 limits assumed) above, with V543F counted along it
Chain of Platelet-derived growth factor receptor alpha (Homo sapiens) (P16234 whole entry): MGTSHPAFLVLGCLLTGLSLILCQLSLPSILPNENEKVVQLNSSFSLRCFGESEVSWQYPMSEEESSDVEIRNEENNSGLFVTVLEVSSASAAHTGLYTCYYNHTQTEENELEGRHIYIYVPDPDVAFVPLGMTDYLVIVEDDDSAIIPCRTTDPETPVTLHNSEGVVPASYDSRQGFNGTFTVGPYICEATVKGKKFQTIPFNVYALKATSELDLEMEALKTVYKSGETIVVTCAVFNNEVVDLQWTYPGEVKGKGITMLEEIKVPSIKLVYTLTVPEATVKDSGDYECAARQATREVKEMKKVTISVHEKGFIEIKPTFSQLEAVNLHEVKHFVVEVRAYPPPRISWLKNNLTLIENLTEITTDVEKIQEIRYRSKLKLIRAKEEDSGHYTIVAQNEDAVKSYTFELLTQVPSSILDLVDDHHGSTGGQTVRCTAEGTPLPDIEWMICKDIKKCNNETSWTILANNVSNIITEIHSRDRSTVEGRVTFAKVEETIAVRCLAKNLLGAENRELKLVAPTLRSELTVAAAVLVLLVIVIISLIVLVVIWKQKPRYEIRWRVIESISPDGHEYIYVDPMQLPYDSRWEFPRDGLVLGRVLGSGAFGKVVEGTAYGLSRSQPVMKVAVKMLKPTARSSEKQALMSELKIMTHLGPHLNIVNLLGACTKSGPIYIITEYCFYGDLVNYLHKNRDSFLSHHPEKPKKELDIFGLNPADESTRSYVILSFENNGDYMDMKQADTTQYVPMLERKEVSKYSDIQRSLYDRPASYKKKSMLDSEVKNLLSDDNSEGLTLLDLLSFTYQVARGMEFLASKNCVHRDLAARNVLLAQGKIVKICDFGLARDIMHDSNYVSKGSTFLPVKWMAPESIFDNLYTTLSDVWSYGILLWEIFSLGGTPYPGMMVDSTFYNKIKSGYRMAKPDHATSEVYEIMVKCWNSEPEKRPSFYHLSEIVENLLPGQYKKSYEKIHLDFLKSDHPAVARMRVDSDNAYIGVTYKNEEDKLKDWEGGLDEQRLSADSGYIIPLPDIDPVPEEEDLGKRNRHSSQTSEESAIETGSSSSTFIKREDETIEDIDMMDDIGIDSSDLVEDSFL
Chain of Fibroblast growth factor receptor 3 (Homo sapiens, UniProt P22607, V555M) (P22607 23-806 V555M limits assumed): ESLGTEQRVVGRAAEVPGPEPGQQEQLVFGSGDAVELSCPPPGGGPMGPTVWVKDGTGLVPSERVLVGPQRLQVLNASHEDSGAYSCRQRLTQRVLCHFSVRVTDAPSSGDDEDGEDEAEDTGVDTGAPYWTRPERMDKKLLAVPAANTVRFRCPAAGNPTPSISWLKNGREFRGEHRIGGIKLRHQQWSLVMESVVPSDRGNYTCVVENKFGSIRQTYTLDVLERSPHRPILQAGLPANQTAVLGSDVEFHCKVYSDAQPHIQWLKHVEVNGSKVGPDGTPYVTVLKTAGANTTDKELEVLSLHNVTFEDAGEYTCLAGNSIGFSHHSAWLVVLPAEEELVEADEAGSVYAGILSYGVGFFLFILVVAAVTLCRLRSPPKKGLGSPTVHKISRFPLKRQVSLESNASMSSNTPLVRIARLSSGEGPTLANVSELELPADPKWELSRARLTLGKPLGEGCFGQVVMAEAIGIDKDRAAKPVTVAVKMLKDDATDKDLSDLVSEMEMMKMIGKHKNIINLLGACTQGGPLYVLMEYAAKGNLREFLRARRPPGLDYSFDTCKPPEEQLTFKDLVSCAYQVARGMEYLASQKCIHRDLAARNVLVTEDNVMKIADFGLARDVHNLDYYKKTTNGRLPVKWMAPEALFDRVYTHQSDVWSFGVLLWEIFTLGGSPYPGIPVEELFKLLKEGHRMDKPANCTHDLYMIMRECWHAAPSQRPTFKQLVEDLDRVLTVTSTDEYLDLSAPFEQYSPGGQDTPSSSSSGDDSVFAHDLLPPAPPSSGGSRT
Chain of Epidermal growth factor receptor (Homo sapiens) (P00533 whole entry): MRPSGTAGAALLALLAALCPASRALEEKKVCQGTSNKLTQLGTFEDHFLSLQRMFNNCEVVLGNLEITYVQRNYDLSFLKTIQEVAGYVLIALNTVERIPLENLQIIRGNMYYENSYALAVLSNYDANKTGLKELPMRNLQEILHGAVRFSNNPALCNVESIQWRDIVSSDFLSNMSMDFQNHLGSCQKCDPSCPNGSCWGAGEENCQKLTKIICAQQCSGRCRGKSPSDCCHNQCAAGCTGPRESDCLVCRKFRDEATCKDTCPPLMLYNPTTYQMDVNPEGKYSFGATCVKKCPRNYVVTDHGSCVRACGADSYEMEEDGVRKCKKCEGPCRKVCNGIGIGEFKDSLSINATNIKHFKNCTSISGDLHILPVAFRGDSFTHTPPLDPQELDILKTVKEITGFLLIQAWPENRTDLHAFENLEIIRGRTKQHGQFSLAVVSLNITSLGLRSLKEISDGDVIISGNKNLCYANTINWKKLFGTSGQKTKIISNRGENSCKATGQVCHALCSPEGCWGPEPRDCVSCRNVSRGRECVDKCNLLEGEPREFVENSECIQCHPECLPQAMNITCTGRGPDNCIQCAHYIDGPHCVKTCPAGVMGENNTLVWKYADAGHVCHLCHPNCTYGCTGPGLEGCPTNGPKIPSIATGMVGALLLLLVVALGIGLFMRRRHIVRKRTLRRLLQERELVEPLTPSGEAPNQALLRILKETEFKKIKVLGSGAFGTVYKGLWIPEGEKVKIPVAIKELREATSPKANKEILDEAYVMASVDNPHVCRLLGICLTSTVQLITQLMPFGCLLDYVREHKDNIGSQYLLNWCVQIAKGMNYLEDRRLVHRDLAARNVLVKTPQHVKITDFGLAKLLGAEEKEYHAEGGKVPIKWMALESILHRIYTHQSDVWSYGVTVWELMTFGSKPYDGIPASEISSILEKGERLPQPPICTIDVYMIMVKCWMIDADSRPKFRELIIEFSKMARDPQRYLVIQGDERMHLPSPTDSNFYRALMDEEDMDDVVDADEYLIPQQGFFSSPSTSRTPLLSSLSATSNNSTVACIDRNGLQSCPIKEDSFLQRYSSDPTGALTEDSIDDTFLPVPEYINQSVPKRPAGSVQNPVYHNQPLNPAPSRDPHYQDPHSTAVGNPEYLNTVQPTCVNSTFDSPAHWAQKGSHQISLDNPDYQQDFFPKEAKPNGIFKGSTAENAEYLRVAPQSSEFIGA

AUC(0-inf) [1]: 5400 ng·h/mL | bioavailability [4]: 47.7% | IC50 [6]: 15.6 nM | AUC(0-t) [9]: 7800 ng·h/mL | IC50 [10]: 18 nM | AUC(0-t) [12]: 1940 ng·h/mL | IC50 [15]: 19.4 nM | IC50 [16]: 380 nM | half-life [19]: 3.55 h | IC50 [22]: 1.5 nM | IC50 [31]: 4.3 nM | half-life [36]: 5.18 h | Activity [38]: Active | Tmax [39]: 4.8 min
SMILES: C=CC(=O)Nc1ccc(Nc2nc(Nc3ccc(N4C[C@@H](C)N[C@@H](C)C4)c(OC)c3)ncc2Cl)cc1Cl
inhibition [2]: Not active; Moderate To Weak Inhibitory Activity Observed | inhibition [3]: Dose-dependent-effect | Activity [5]: Active | inhibition [7]: Active | inhibition [8]: Active | Activity [11]: Non-toxic | inhibition [13]: Dose-dependent-effect | inhibition [14]: Active | Activity [17]: Non-toxic | inhibition [18]: Active | inhibition [20]: Not active; Moderate To Weak Inhibitory Activity Observed | inhibition in vivo at 30 mg/kg [21]: 48% | Activity [23]: Active | inhibition at 0.04 µM [24]: 40% | Activity [25]: Non-toxic | Activity [26]: Non-toxic | inhibition [27]: Active | Activity [28]: Non-toxic | inhibition [29]: Active | Activity [30]: Non-toxic | Activity [32]: Non-toxic | inhibition [33]: Active | Activity [34]: Non-toxic | Activity [35]: Non-toxic | Activity [37]: Non-toxic | Activity [40]: Non-toxic | Activity [41]: Active
